Measurements reported in ChEMBL document CHEMBL1255552, “Synthesis and SAR of 2-aryl-3-aminomethylquinolines as agonists of the bile acid receptor TGR5” (Bioorg Med Chem Lett, 2010).

Experiments:
[1] = Volume of distribution in mouse at 3 mg/kg, iv; type: ADME, organism-based; parameters: dose 3 mg/kg, route intravenous; details: in vivo
[2] = Cmax in mouse at 30 mg/kg, po; type: ADME, organism-based; parameters: dose 30 mg/kg, route oral; details: in vivo
Mus musculus [3] = assay: (§1) AUC in mouse at 30 mg/kg, po; type: ADME, organism-based, Plasma; parameters: dose 30 mg/kg, route oral; details: in vivo
[4] = Half life in mouse at 30 mg/kg, po; type: ADME, organism-based; parameters: dose 30 mg/kg, route oral; details: in vivo
Mus musculus [5] = assay: (§2) Oral bioavailability in mouse at 30 mg/kg; type: ADME, organism-based; details: in vivo
[6] = Clearance in mouse at 3 mg/kg, iv; type: ADME, organism-based; parameters: dose 3 mg/kg, route intravenous; details: in vivo
[7] = as §1; type: ADME, organism-based, Plasma; parameters: dose 30 mg/kg, route oral; details: plasma
[8] = as §2; type: ADME, organism-based; details: in vivo

| Vd [1] [L/kg] | Cmax [2] [ng/mL] | AUC (Mus musculus [3]) [ng·h/mL] | half-life [4] [h] | F (Mus musculus [5]) [%] | clearance [6] [mL/min/kg] | AUC [7] [ng·h/mL] | bioavailability [8] [%] | Compound |
| --- | --- | --- | --- | --- | --- | --- | --- | --- |
| 2.4 | 370 | 400 | 4.4 | 9 | – | – | – | Oc1ccc2cc(CNCCc3ccc(Br)cc3)c(-c3ccsc3)nc2c1 |
| 1.4 | 500 | – | 7.7 | – | 29 | 860 | 10 | COc1cc2nc(-c3ccsc3)c(CNCCc3ccc(Br)cc3)cc2cc1O |
